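How tested: cells in 96-well plates exposed to compound for 48 hours at five concentrations. Here, GI50 denotes the concentration required for 50% inhibition of growth. TGI denotes the concentration required for complete inhibition of growth.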
system: M19-MEL melanoma; experiment: NCI tumour cell line growth inhibition, 48 h

Compound | TGI | GI50
N#Cc1cc([N+](=O)[O-])ccc1NC(=O)C(=O)Nc1n[nH]c(N)n1 | > 100 µM | 
O=C(/C=C/c1c(O)ccc2ccccc12)c1cccc(O)c1 | 33.3 µM | 
CC1=NN(C(=O)Nc2ccccc2)C(=O)C2CCC(=O)N12 (centres undefined) | > 100 µM | 
COC(=O)C1Cc2c(n(Cc3ccccc3)c3ccccc23)C(CCC(=O)O)N1C(C)C (centres undefined) | > 100 µM | 
O=C(O)CNS(=O)(=O)c1ccc(NCc2ccccc2)cc1 | > 100 µM | 
CC(C)(C)C1C=C(Sc2ccccc2)C(=O)O1 (centres undefined) | > 100 µM | 
CCC[CH2][Sn]1([CH2]CCC)[O]Cc2nc(C)ccc2[O]1 | 19.2 µM | 4.49 µM
O=c1/c(=C/c2ccco2)sc2nc3ccccc3n12 | > 100 µM | > 100 µM
O=C1CCC2(c3ccc(F)cc3)Nc3cc(Cl)ccc3N12 (centres undefined) | > 100 µM | 
C/C(CC(=O)Nc1ccc(C)cc1C)=N/N=C(N)N | > 100 µM | 

system: LXFL 529 NSCLC; experiment: NCI tumour cell line growth inhibition, 48 h

Compound | TGI | GI50
COC(=O)c1c/c(=N\NC(=O)CC(=O)Nc2ccccc2OC)c2ccccc2o1 | > 100 µM | 
NC(CCC(=O)NC(CSSCCCCS(=O)O)C(=O)NCC(=O)O)C(=O)O (centres undefined) | > 100 µM | 
COC12C=C(C)C(CC1)CC2C(=O)O (centres undefined) | > 100 µM | 
OCC(O)CC[CH2][Sn]([Br])([c]1ccccc1)[c]1ccccc1 (centres undefined) | > 100 µM | 88.5 µM
CCc1ccc(/C=C\c2cc(OC)c(OC)c(OC)c2)cc1 | 27.3 µM | 0.0233 µM
O=c1c2cc([N+](=O)[O-])ccc2sc2ccsc12 | > 100 µM | 
COc1ccc(C2=CC3CCC2C3)cc1 (centres undefined) | > 100 µM | 
COc1ccc(/C=C/CN(C)CCc2ccccc2)cc1OC | > 100 µM | 
[Cl-].[Dy+3].[O-]/N=C(\c1ccccc1)c1ccccn1.[O-]/N=C(\c1ccccc1)c1ccccn1.[O-]/N=C(\c1ccccc1)c1ccccn1 | > 100 µM | 41.2 µM
NC(=O)C(=O)N/N=C(\CC1(O)C(=O)Nc2ccccc21)c1ccc2ccccc2c1 (centres undefined) | > 100 µM | 
Cc1cc2c(cc1C)[n+](=O)c(C(=O)C/C(=N/NC(=O)CC#N)C(=O)Nc1ccccc1C(F)(F)F)c(C)n2[O-] | > 100 µM | 
COC(=O)/C(=N/NC(=O)C[N+](C)(C)C)C(C(=O)OC)C(=O)C(=O)Nc1ccc(F)cc1 (centres undefined) | > 100 µM | 
O=C(c1ccccc1)c1nnc(C(=O)c2ccccc2)nn1 | > 344 µM | 
Brc1cccc(C=NC23CC4CC(CC(C4)C2)C3)c1 | > 100 µM | 
CC[CH2][Sn]([CH2]CC)([O]C(=O)c1cccnc1SC)[O][Sn]([CH2]CC)([CH2]CC)[O]C(=O)c1cccnc1SC | 0.155 µM | 0.0198 µM
CCC[CH2][Sn]([CH2]CCC)([O]C(=O)c1cccnc1SC)[O]C(=O)c1cccnc1SC | 0.238 µM | 0.059 µM
O=C1CCC(=O)N2CCCCN12 | > 100 µM | 
CC(C)C(=O)NC(=S)Nc1ccc([N+](=O)[O-])cc1C#N | > 100 µM | 
C/C(CC(=O)Nc1cc(Cl)c(Cl)cc1Cl)=N\NC(N)=O | > 100 µM | 
N#Cc1cc([N+](=O)[O-])ccc1NC(=O)C(=O)Nc1n[nH]c(N)n1 | > 100 µM | 
O=C(/C=C/c1c(O)ccc2ccccc12)c1cccc(O)c1 | > 100 µM | 
CC1=NN(C(=O)Nc2ccccc2)C(=O)C2CCC(=O)N12 (centres undefined) | > 100 µM | 
COC(=O)C1Cc2c(n(Cc3ccccc3)c3ccccc23)C(CCC(=O)O)N1C(C)C (centres undefined) | > 100 µM | 
O=C(O)CNS(=O)(=O)c1ccc(NCc2ccccc2)cc1 | > 100 µM | 
CC(C)(C)C1C=C(Sc2ccccc2)C(=O)O1 (centres undefined) | > 100 µM | 
CCC[CH2][Sn]1([CH2]CCC)[O]Cc2nc(C)ccc2[O]1 | 5.75 µM | 2.07 µM
O=c1/c(=C/c2ccco2)sc2nc3ccccc3n12 | > 100 µM | > 100 µM
O=C1CCC2(c3ccc(F)cc3)Nc3cc(Cl)ccc3N12 (centres undefined) | > 100 µM | 
C/C(CC(=O)Nc1ccc(C)cc1C)=N/N=C(N)N | > 100 µM | 

system: MDA-N; experiment: NCI tumour cell line growth inhibition, 48 h

Compound | TGI | GI50
CCc1ccc(/C=C\c2cc(OC)c(OC)c(OC)c2)cc1 | 0.00395 µM | 
CC(=O)OCCN1c2ccccc2Sc2cnccc21 | > 10 µM | 
CC(C)(CC(=O)Nc1ccccc1)C(=O)O | > 100 µM | 
Cn1c(=O)c2[nH]c(SCc3ccccn3)nc2n(C)c1=S | > 100 µM | 
COc1ccc(-c2cc(=O)c3ccc(O)cc3o2)cc1OC | > 100 µM | 
CC[CH2][Sn]([CH2]CC)([O]C(=O)c1cccnc1SC)[O][Sn]([CH2]CC)([CH2]CC)[O]C(=O)c1cccnc1SC | 2.52 µM | 1.27 µM
CCC(C)c1c(Cl)nc(Cl)nc1Cl (centres undefined) | 23.8 µM | 
CC[C@@]1(O)C(=O)OCc2c1cc1n(c2=O)Cc2c-1nc1cc3c(cc1c2CCl)OCO3 | 1.63 µM | < 0.01 µM
C[C@]12CC[C@H]3[C@@H](CC=C4C[C@@H](O)CC[C@@]43C)[C@@H]1CC[C@@H]2N(CCO)CCO | > 100 µM | 
CC[C@@H]1CN(C)[C@H]2Cc3c([nH]c4ccccc34)C(=O)C[C@H]1C2C(=O)OC (some centres undefined) | > 100 µM | 
Cc1ccc2c(c1)[n+]([O-])c(N)n[n+]2[O-] | > 100 µM | 
COc1ccc(/C=C/c2nccc3ccccc23)cc1OC | > 10 µM | 
COC1/C=C\C=C(/C)C(=O)NC2=CC(=O)C(=O)C(=C2O)CC(C)CC(OC)C(O)C(C)/C=C(\C)C1OC(N)=O (centres undefined) | 12.2 µM | 
COc1ccc(-c2cc(=O)c3c(OC)c(OC)c(OC)cc3o2)cc1 | > 100 µM | 

— PubChem BioAssay (NCI)
